From US20230013227A1, “ARYL-ANILINE AND HETEROARYL-ANILINE COMPOUNDS FOR TREATMENT OF BIRTHMARKS” (NFlection Therapeutics, Inc., priority 2018, published 2023)
Read-outs that look alike come from different tables or passages of the source.

Assays:
MAP2K1 (MEK1) = biological target: T1, MAP2K1 (MEK1) (Homo sapiens, UniProt Q02750); assay: MEK Inhibition Assay-2 (Example 3): Z'-LYTE biochemical assay; settings: Table 6; procedure of Example 3; read-out: IC50 against MEK1
T1 construct: purchased ThermoFisher
Description: MEK1 inhibitory activity of compounds were tested using the following procedure (protocol available at thermofisher.com/content/dam/LifeTech/migration/files/drug-discovery/pdfs.par.60256.file.dat/20130430%20ssbk%20customer%20protocol%20and%20assay%20conditions.pdf). The Z′-LYTE biochemical assay (ThermoFisher) employs a fluorescence-based, coupled-enzyme format and is based on the differential sensitivity of phosphorylated and non-phosphorylated peptides to proteolytic cleavage.
Test compounds in 100% DMSO were screened in 1% DMSO (final) in the well. For 10 point titrations, 3-fold serial dilutions are conducted from the starting concentration of 30 μM.
After the 1 hour incubation, 5 μL of a 1:1024 dilution of Development Reagent A (available from Invitrogen, catalog no. PV3295) was added.
ATP solutions were diluted to a 4× working concentration in Kinase Buffer (50 mM HEPES pH 7.5, 0.01% BRIJ-35, 10 mM MgCl2, 1 mM EGTA). ATP Km apparent was previously determined using a Z′-LYTE assay. The Development Reagent was diluted in Development Buffer (available from Invitrogen, catalog no. P3127).
Assay Protocol: 2.5 μL of 4× test compound or 100 nL of 100× Test Compound plus 2.4 μL Kinase Buffer, 5 μL of the 2× Peptide/Kinase Mixture, 2.5 μL of 4×ATP Solution were added to the plates and placed on a shake plate for 30-seconds. The kinase reaction was allowed to proceed for 60-minute at room temperature, before 5 μL of Development Reagent Solution was added, and the mixture agitated for 30-seconds on a shake plate. The mixture was incubated for 60-minute at room temperature. Fluorescence was measured using a plate reader and the data were analyzed.
This control yielded 100% cleaved peptide in the Development Reaction. The 100% Phosphorylation Control, which consisted of a synthetically phosphorylated peptide of the same sequence as the peptide substrate, was designed to allow for the calculation of percent phosphorylation. This control yielded a very low percentage of cleaved peptide in the Development Reaction. The 0% Phosphorylation and 100% Phosphorylation Controls allow for the calculation of the percent phosphorylation achieved in a specific reaction well.
The minimum emission ratio in a screen was established by the 0% Inhibition Control, which contained active kinase. This control was designed to produce a 10-50% phosphorylated peptide in the Kinase Reaction. Cascade assays may produce up to 70% phosphorylated peptide.
A known inhibitor control standard curve, 10 point titration, was run for each individual kinase on the same plate as the kinase to ensure the kinase was inhibited within an expected IC50 range previously determined.
The following controls are prepared for each concentration of Test Compound assayed. […] The expected value for a non-interfering compound should be 100%. Any value outside of 90% to 110% was flagged. […] The expected value for a non-fluorescence compound should be 0%. Any value >20% was flagged.
The data in Table A was calculated. XLfit from IDBS was used. The dose response curve was curve fit to model number 205 (sigmoidal dose-response model).

MEK1 = biological target: T2, MEK1 (Homo sapiens, UniProt Q02750); assay: MEK Inhibition Assay-1 (Example 2): 33P-ATP, P81 filter-binding kinase assay; settings: Example 2, read-out: Assay 1: biochemical MEK IC50
T2 construct: N-terminal His-tagged recombinant human full length protein; purchased Invitrogen PV3303; host or cells: insect cells
Description: The following procedure can be used to measure biochemical activity. MEK1 inhibitory activity of compounds were tested using the following procedure. […] Nat Biotechnoi 2011, 29(11), 1039-45.
• Reaction buffer: 20 mM Hepes (pH 7.5), 10 mM MgCl2, 1 mM EGTA, 0.02% Brij35, 0.02 mg/mL BSA, 0.1 mM Na3VO4, 2 mM DTT, 1% DMSO • Enzyme: MEK1, Invitrogen cat #PV3303 • N-terminal His-tagged recombinant human full length protein, expressed in insect cells. Activated in vitro by RAF1. MW=49.2 kDa, GenBank Accession No. NP_002746. • Substrate: 5 μM ERK2 (K52R), • Kinase-dead mutant, (GenBank Accession No. NM_0011949), aa2-358 with N-terminal His6 tag, MW=43.63 kDa, expressed in E. coli.
The substrate was prepared in freshly prepared Reaction Buffer. The kinase was delivered into the substrate solution and gently mixed. Test compounds were delivered in 100% DMSO into the kinase reaction mixture by Acoustic technology (Echo550; nanoliter range), and incubated for 20 min at room temperature. ^33P-ATP was delivered into the reaction mixture to initiate the reaction. The reaction mixture was incubated for 2 hours at room temperature. Kinase activity was detected by P81 filter-binding method.

[1] = Table 7, compounds of formula (I)
[2] = Table 10, compounds of formula (IV)

T1 sequence (Q02750 whole entry): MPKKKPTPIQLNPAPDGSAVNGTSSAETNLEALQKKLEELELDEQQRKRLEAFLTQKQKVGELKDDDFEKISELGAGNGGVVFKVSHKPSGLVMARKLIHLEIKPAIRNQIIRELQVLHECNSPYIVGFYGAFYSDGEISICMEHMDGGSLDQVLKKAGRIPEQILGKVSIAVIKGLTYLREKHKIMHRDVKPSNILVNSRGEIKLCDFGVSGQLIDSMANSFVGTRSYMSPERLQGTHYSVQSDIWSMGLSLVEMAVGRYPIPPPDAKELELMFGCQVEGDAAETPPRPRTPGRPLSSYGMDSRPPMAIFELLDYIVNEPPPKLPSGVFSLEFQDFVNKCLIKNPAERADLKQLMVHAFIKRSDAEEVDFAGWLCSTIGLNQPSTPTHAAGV
T2 sequence (Q02750 whole entry): as above

SMILES | IC50 (MAP2K1 (MEK1)) [nM] | IC50 (MEK1; [1]) [nM] | IC50 (MEK1; [2]) [nM]
N#Cc1ccc(C(=O)O)c(Nc2ccc(I)cc2F)c1 [Compound 1.001] | 150 to 1500 | – | –
N#Cc1ccc(C(=O)N2CC(O)C2)c(Nc2ccc(I)cc2F)c1 [Compound 1.002] | > 1500 | – | –
CONC(=O)c1ccc(C#N)cc1Nc1ccc(I)cc1F [Compound 1.007] | 150 to 1500 | 150 to 1500 | –
CCONC(=O)c1ccc(C#N)cc1Nc1ccc(I)cc1F [Compound 1.008] | 150 to 1500 | ≤ 150 | –
CCCONC(=O)c1ccc(C#N)cc1Nc1ccc(I)cc1F [Compound 1.009] | 150 to 1500 | 150 to 1500 | –
N#Cc1ccc(C(=O)NOCCO)c(Nc2ccc(I)cc2F)c1 [Compound 1.010] | ≤ 150 | ≤ 150 | –
Cc1cc(I)ccc1Nc1cc(C#N)ccc1C(=O)NOCCO [Compound 1.011] | 150 to 1500 | – | –
N#Cc1ccc(C(=O)NOCC2CC2)c(Nc2ccc(I)cc2F)c1 [Compound 1.012] | 150 to 1500 | – | –
Cc1cc(I)ccc1Nc1cc(C#N)ccc1C(=O)NOCC1CC1 [Compound 1.013] | 150 to 1500 | – | –
N#Cc1ccc(C(=O)NO)c(Nc2ccc(I)cc2F)c1 [Compound 1.017] | ≤ 150 | – | –
N#Cc1ccc(C(=O)NOCCN)c(Nc2ccc(I)cc2F)c1 [Compound 1.018] | 150 to 1500 | – | –
COC(=O)CCONC(=O)c1ccc(C#N)cc1Nc1ccc(I)cc1F [Compound 1.022] | > 1500 | – | –
N#Cc1ccc(C(=O)NOCCO)c(Nc2ccc(I)cc2F)c1F [Compound 1.030] | ≤ 150 | ≤ 150 | –
N#Cc1ccc(C(=O)NOCC2CC2)c(Nc2ccc(I)cc2F)c1F [Compound 1.031] | ≤ 150 | ≤ 150 | –
CC(=O)c1sc(Nc2ccc(I)cc2F)c(C(=O)NOCCO)c1C [Compound 4.013] | 150 to 1500 | – | ≤ 500
CC(=O)c1sc(Nc2ccc(I)cc2F)c(C(=O)NC[C@H](O)CO)c1C [Compound 4.014] | 150 to 1500 | – | –

More lines, now with the values ahead:

IC50 (MAP2K1 (MEK1)) [nM] | IC50 (MEK1; [1]) [nM] | IC50 (MEK1; [2]) [nM] | SMILES
150 to 1500 | – | – | CC(=O)c1sc(Nc2ccc(I)cc2F)c(C(=O)NC[C@@H](O)CO)c1C [Compound 4.015]
– | – | 500 to 1000 | CC(=O)c1sc(Nc2ccc(I)cc2F)c(C(=O)N[C@@H]2CCCNC2)c1C [Compound 4.016]
– | – | 500 to 1000 | CC(=O)c1sc(Nc2ccc(I)cc2F)c(C(=O)N[C@@H]2CCNC2)c1C [Compound 4.017]
– | – | 5000 to 10000 | CC(=O)c1sc(Nc2ccc(I)cc2F)c(C(=O)N2CC[C@@H](N)C2)c1C [Compound 4.018]
– | – | 1000 to 5000 | CC(=O)c1sc(Nc2ccc(I)cc2F)c(C(=O)NCC(C)(C)N)c1C [Compound 4.020]
– | – | 500 to 1000 | CONC(=O)c1c(Nc2ccc(I)cc2F)sc(C(C)=O)c1C [Compound 4.021]
– | – | ≤ 500 | CCONC(=O)c1c(Nc2ccc(I)cc2F)sc(C(C)=O)c1C [Compound 4.022]
– | – | ≤ 500 | CC(=O)c1sc(Nc2ccc(I)cc2F)c(C(=O)NOCC2CC2)c1C [Compound 4.023]
≤ 150 | – | – | O=C1CCCc2c1sc(Nc1ccc(I)cc1F)c2C(=O)NOC[C@H](O)CO [Compound 4.030]
≤ 150 | – | ≤ 500 | O=C1CCCc2c1sc(Nc1ccc(I)cc1F)c2C(=O)NOCC1CC1 [Compound 4.032]
≤ 150 | – | – | NCCONC(=O)c1c(Nc2ccc(I)cc2F)sc2c1CCCC2=O [Compound 4.033]
≤ 150 | – | – | O=C1CCCc2c1sc(Nc1ccc(I)cc1F)c2C(=O)NC[C@H](O)CO [Compound 4.034]
≤ 150 | – | – | O=C1CCCc2c1sc(Nc1ccc(I)cc1F)c2C(=O)NC[C@@H](O)CO [Compound 4.035]
≤ 150 | – | – | O=c1c2c(Nc3ccc(I)cc3F)cncc2ccn1C[C@@H](O)CO [Compound 5.001]
≤ 150 | – | – | O=c1c2c(Nc3ccc(I)cc3F)cncc2ccn1C[C@H](O)CO [Compound 5.002]
150 to 1500 | – | – | NCCCn1ccc2cncc(Nc3ccc(I)cc3F)c2c1=O [Compound 5.003]
> 1500 | – | – | O=C(O)Cn1ccc2cncc(Nc3ccc(I)cc3F)c2c1=O [Compound 5.004]
> 1500 | – | – | COC(=O)Cn1ccc2cncc(Nc3ccc(I)cc3F)c2c1=O [Compound 5.005]
150 to 1500 | – | – | O=c1c2c(Nc3ccc(I)cc3F)cncc2ccn1O [Compound 5.006]
150 to 1500 | – | – | O=c1c2c(Nc3ccc(I)cc3F)cncc2ccn1OCCO [Compound 5.007]
150 to 1500 | – | – | O=C1c2c(cncc2Nc2ccc(I)cc2F)CCN1OCCO [Compound 5.010]
150 to 1500 | – | – | CCON1CCc2cncc(Nc3ccc(I)cc3F)c2C1=O [Compound 5.011, 2-ethoxy-8-((2-fluoro-4-iodophenyl)amino)-3,4-dihydro-2,6-naphthyridin-1(2H)-one]
150 to 1500 | – | – | O=C1NCCc2cncc(Nc3ccc(I)cc3F)c21 [Compound 5.012]
